{
  "source": "ChEMBL document CHEMBL4818999",
  "about": "“Pyrido[2, 3-d]pyrimidin-7(8H)-ones as new selective orally bioavailable Threonine Tyrosine Kinase (TTK) inhibitors” (Eur J Med Chem, 2021)",
  "key": {"[1]": {"assay": "Toxicity in CB17-SCID mouse xenografted with human HCT-116 cells xenografted assessed as liver damage at 50 mg/kg, po administered once daily relative to control", "format": "organism-based", "conditions": "in vivo"}, "HCT-116 [2]": {"test_system": "HCT-116", "assay": "Induction of apoptosis in human HCT-116 cells assessed as late apoptotic cells at 333.3 nM incubated for 48 hrs by annexin V and 7-AAD staining based flow cytometry analysis (reference value: 1.20 %)", "format": "functional"}, "[3]": {"target": "T1, MAP/microtubule affinity-regulating kinase 3 (Homo sapiens, UniProt P27448)", "assay": "Binding affinity to wild-type human full length MARK3 (M1 to L729 residues) expressed in bacterial expression system by measuring active site-directed competition binding based Kinomescan method"}, "[4]": {"target": "T2, Interleukin-1 receptor-associated kinase 1 (Homo sapiens, UniProt P51617)", "conditions": "dose 100.0 nM", "description": "Inhibition of human recombinant IRAK1 (198 to end) using myelin ba as substrate at 100 nM direct filter-binding radiometric kinase activity assay relative to control"}, "[5]": {"target": "T1, MAP/microtubule affinity-regulating kinase 3", "conditions": "dose 100.0 nM"}, "[6]": {"assay": "Cmax in Sprague-Dawley rat at 5 mg/kg, iv", "format": "ADME, organism-based", "design": "route intravenous, dose 5 mg/kg", "conditions": "in vivo"}, "[7]": {"target": "Mitogen-activated protein kinase 10 (Homo sapiens) (UniProt P53779)", "sequence (P53779 whole entry)": "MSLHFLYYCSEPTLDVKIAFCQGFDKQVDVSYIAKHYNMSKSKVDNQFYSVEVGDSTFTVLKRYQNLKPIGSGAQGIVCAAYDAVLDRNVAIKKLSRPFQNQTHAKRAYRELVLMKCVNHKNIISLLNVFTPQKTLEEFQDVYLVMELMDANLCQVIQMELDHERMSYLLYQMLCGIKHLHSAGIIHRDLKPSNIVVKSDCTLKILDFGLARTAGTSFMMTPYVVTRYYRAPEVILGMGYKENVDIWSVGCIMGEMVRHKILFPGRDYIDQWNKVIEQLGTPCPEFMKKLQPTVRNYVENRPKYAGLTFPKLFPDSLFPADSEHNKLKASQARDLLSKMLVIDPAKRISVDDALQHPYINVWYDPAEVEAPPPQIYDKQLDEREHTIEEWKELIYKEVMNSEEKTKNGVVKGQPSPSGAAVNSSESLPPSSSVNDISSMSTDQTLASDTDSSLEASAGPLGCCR", "conditions": "dose 100.0 nM", "description": "Inhibition of human full length JNK3 at 100 nM by direct-filter Binding radiometric assay relative to control"}, "HCT-116 [8]": {"test_system": "HCT-116", "assay": "Induction of apoptosis in human HCT-116 cells assessed as viable cells at 333.3 nM incubated for 48 hrs by annexin V and 7-AAD staining based flow cytometry analysis (reference value: 82.09 %)", "format": "functional", "conditions": "read-out: Activity"}, "[9]": {"target": "Myotonin-protein kinase (Homo sapiens) (UniProt Q09013)", "sequence (Q09013 whole entry)": "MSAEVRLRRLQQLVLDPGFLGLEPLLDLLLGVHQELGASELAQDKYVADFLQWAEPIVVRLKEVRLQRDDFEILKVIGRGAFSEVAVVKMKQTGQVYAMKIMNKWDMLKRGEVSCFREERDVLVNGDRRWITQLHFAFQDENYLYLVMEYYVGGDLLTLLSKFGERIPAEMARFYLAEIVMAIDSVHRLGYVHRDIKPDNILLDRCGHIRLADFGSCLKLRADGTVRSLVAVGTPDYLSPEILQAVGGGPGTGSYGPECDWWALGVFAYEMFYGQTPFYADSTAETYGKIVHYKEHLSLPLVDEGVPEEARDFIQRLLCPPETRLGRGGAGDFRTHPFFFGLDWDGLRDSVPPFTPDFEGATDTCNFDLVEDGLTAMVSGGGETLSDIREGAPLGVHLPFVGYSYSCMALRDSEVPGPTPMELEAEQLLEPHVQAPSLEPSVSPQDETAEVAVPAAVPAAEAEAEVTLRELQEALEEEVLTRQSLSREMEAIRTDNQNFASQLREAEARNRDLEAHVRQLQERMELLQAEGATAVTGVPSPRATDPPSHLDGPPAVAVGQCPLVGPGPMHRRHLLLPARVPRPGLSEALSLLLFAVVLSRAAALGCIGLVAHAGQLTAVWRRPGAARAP", "conditions": "dose 100.0 nM", "description": "Inhibition of human recombinant DMPK (1 to 549) using Axltide at 100 nM direct filter-binding radiometric kinase activity assay relative to control"}, "[10]": {"assay": "Clearance in Sprague-Dawley rat at 5 mg/kg, iv", "format": "ADME, organism-based", "conditions": "in vivo"}, "[11]": {"assay": "Cmax in Sprague-Dawley rat at 25 mg/kg, po", "format": "ADME, organism-based", "design": "route oral, dose 25 mg/kg", "conditions": "in vivo"}, "[12]": {"target": "Serine/threonine-protein kinase ULK1 (Homo sapiens) (UniProt O75385)", "sequence (O75385 whole entry)": "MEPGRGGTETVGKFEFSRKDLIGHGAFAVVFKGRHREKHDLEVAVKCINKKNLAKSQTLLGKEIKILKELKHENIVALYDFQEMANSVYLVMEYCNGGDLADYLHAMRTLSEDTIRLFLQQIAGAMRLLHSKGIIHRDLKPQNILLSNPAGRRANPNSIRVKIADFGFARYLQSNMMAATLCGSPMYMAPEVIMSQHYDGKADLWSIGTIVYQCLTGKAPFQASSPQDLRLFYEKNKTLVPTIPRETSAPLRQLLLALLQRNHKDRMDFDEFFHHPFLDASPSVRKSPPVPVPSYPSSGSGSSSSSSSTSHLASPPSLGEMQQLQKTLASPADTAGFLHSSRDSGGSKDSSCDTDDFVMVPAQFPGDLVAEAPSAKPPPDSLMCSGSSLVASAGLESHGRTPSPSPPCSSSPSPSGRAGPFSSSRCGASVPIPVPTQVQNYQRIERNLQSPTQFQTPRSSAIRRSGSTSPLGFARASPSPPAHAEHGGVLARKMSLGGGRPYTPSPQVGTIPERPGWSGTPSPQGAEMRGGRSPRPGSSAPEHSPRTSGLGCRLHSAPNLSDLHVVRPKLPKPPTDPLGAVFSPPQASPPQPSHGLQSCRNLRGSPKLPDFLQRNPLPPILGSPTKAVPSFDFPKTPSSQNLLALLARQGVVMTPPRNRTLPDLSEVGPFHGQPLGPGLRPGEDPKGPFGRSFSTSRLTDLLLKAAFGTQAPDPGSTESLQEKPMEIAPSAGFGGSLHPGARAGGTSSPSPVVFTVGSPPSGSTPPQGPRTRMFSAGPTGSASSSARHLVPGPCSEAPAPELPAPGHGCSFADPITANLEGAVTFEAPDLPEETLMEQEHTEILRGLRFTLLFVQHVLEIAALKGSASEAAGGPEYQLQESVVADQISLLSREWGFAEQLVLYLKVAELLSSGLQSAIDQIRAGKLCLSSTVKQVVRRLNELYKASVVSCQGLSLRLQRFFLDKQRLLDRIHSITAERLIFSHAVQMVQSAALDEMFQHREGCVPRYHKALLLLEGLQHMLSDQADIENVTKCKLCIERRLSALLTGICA", "conditions": "dose 100.0 nM", "description": "Inhibition of human recombinat ULK1 (1 to 314) using casein as substrate at 100 nM direct filter-binding radiometric kinase activity assay relative to control"}, "[13]": {"target": "T3, Dual specificity protein kinase TTK (Homo sapiens, UniProt P33981)", "T3 sequence (P33981 whole entry)": "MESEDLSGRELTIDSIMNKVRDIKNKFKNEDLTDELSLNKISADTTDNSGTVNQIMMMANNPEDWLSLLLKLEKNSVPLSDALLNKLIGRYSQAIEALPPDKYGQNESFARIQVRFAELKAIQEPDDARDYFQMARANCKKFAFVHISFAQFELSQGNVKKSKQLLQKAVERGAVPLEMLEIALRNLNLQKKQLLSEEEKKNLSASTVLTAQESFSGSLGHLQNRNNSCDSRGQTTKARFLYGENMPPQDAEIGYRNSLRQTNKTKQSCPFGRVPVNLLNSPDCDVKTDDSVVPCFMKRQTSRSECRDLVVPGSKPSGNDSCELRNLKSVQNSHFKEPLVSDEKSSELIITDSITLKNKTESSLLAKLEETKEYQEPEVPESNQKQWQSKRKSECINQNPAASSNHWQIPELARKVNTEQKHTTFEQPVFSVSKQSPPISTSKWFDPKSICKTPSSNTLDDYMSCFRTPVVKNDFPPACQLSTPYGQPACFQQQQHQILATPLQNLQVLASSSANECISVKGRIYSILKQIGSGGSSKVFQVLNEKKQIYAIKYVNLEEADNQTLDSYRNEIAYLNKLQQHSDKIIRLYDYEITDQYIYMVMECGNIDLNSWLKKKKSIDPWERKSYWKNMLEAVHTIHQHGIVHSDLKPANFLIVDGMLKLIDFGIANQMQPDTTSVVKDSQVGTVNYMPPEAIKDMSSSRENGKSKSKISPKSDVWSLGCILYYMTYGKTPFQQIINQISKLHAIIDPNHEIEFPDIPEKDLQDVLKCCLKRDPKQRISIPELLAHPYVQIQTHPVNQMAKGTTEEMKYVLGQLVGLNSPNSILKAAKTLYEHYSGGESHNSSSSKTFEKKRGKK", "assay": "Inhibition of recombinant full-length human TTK using MBP as substrate incubated for 40 mins in presence of [gamma33P]ATP by scintillation counting based radiometry assay relative to control"}, "HCT-116 [14]": {"test_system": "HCT-116", "assay": "Induction of apoptosis in human HCT-116 cells assessed as late apoptotic cells at 333.3 nM incubated for 48 hrs by annexin V and 7-AAD staining based flow cytometry analysis (reference value: 8.59 %)", "format": "functional"}, "[15]": {"target": "T2, Interleukin-1 receptor-associated kinase 1", "assay": "Binding affinity to wild-type human partial length IRAK1 (R194 to S712 residues) expressed in mammalian expression system by active site-directed competition binding based Kinomescan method"}, "[16]": {"assay": "Oral bioavailability in Sprague-Dawley rat at 25 mg/kg", "format": "ADME, organism-based", "conditions": "in vivo"}, "[17]": {"assay": "Toxicity in CB17-SCID mouse xenografted with human HCT-116 cells xenografted assessed as body weight loss at 50 mg/kg, po administered once daily relative to control", "format": "organism-based", "conditions": "in vivo"}, "HCT-116 [18]": {"test_system": "HCT-116", "assay": "Induction of apoptosis in human HCT-116 cells assessed as viable cells at 111.1 nM incubated for 48 hrs by annexin V and 7-AAD staining based flow cytometry analysis (reference value: 82.09 %)", "format": "functional", "conditions": "read-out: Activity"}, "[19]": {"target": "Death-associated protein kinase 3 (Homo sapiens, UniProt O43293)", "assay": "Binding affinity to wild-type human partial length DAPK3 (M1 to A277 residues) expressed in bacterial expression system by measuring active site-directed competition binding based Kinomescan method"}, "[20]": {"target": "Phosphatidylinositol 3-kinase C2 domain-containing subunit gamma (Homo sapiens) (UniProt O75747)", "sequence (O75747 whole entry, the tested form may be a part)": "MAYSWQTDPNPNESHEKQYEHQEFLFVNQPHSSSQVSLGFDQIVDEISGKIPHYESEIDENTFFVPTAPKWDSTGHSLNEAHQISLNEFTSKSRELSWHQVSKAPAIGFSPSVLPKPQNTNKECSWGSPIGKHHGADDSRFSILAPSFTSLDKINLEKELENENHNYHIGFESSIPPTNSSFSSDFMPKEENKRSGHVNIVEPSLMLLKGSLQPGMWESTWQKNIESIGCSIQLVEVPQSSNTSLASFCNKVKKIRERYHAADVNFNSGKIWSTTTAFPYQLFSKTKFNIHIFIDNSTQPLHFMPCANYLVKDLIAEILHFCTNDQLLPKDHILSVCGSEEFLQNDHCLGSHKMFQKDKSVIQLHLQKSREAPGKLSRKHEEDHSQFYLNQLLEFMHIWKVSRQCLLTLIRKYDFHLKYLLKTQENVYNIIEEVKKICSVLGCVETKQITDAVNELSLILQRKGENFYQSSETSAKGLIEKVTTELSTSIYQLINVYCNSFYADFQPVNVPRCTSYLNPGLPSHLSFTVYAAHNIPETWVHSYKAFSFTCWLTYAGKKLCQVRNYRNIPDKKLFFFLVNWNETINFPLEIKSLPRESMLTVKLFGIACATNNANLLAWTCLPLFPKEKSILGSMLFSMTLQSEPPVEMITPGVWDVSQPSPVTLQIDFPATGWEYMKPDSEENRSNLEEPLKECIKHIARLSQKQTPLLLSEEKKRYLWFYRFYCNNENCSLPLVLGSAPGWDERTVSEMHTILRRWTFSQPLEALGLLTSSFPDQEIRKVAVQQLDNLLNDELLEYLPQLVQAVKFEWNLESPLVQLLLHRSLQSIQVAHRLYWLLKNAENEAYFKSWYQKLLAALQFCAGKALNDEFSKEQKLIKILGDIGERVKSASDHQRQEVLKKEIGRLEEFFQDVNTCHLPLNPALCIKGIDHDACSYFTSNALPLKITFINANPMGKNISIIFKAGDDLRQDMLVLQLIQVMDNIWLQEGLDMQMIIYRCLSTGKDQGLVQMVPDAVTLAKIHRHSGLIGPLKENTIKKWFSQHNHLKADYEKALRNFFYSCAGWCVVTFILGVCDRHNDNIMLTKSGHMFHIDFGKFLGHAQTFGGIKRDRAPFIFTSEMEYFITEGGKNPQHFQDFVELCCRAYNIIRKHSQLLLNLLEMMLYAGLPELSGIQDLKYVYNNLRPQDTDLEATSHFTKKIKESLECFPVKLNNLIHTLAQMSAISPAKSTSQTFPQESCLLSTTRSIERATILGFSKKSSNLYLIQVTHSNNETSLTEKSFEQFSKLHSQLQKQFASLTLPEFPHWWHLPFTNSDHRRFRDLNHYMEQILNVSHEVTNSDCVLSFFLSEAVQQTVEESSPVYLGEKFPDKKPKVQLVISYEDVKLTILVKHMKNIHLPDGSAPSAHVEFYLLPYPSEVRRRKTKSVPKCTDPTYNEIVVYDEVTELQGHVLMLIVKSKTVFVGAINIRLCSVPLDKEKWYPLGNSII", "conditions": "dose 100.0 nM", "description": "Inhibition of PIK3C2G (unknown origin) at 100 nM direct filter-binding radiometric kinase activity assay relative to control"}, "[21]": {"assay": "Half life in Sprague-Dawley rat at 5 mg/kg, iv", "format": "ADME, organism-based", "conditions": "in vivo"}, "[22]": {"target": "Maternal embryonic leucine zipper kinase (Homo sapiens) (UniProt Q14680)", "sequence (Q14680 whole entry, looked up)": "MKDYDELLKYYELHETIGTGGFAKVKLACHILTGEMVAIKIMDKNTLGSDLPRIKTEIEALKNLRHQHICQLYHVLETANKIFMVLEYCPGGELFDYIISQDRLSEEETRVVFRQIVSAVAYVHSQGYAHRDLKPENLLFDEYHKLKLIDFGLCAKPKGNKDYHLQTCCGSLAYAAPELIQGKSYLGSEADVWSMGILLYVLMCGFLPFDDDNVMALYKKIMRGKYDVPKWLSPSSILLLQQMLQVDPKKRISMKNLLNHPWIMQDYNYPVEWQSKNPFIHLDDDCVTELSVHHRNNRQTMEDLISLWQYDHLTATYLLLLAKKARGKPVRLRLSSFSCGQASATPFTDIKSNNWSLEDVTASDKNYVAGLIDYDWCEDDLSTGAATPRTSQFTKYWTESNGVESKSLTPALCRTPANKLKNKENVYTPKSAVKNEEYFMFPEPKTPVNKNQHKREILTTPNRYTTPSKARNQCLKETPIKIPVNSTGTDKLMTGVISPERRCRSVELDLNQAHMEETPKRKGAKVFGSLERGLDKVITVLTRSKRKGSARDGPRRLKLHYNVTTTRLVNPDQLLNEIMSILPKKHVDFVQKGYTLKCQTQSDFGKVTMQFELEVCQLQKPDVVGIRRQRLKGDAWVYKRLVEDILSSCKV", "conditions": "dose 100.0 nM"}, "HCT-116 [23]": {"test_system": "HCT-116", "assay": "Induction of apoptosis in human HCT-116 cells assessed as […] cells at 1000 nM incubated for 48 hrs by annexin V and 7-AAD staining based flow cytometry analysis (reference value: 1.20 %)", "format": "functional"}, "HCT-116 [24]": {"test_system": "HCT-116", "assay": "Induction of apoptosis in human HCT-116 cells assessed as late apoptotic cells at 111.1 nM incubated for 48 hrs by annexin V and 7-AAD staining based flow cytometry analysis (reference value: 8.59 %)", "format": "functional"}, "HCT-116 [25]": {"test_system": "HCT-116", "assay": "Antitumor activity at human HCT-116 cells xenografted in CB17-SCID mouse assessed as tumor growth inhibition at 50 mg/kg, po administered daily, 2days on/ 4 days off and measured every 2 days for 16 days relative to control", "format": "functional", "conditions": "HCT-116, po, 384 h, time 16 day, read-out: TGI"}, "HCT-116 [26]": {"test_system": "HCT-116", "assay": "Induction of apoptosis in human HCT-116 cells assessed as viable cells at 1000 nM incubated for 48 hrs by annexin V and 7-AAD staining based flow cytometry analysis (reference value: 82.09 %)", "format": "functional", "conditions": "read-out: Activity"}, "[27]": {"target": "Serine/threonine-protein kinase DCLK1 (Homo sapiens) (UniProt O15075)", "sequence (O15075 whole entry)": "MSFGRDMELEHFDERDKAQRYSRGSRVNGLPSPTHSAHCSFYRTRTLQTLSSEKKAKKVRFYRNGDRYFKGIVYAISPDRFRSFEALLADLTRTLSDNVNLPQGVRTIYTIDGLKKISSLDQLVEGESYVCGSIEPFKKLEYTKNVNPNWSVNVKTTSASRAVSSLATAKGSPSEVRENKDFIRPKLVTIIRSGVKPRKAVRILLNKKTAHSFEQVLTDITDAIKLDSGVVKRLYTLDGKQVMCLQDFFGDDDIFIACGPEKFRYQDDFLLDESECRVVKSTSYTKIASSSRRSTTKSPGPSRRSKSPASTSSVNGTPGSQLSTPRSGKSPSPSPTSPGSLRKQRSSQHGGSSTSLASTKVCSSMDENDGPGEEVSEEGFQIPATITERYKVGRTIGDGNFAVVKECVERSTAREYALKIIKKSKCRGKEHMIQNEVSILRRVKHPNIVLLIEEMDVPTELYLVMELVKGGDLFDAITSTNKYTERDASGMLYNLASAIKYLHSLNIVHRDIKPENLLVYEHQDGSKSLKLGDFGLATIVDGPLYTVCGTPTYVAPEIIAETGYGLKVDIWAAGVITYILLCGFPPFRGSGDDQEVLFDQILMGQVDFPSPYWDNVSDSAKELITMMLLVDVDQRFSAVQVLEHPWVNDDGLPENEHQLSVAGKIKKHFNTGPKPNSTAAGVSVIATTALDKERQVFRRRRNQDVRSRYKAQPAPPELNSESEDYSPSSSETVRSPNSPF", "conditions": "dose 100.0 nM", "description": "Inhibition of human DCAMKL1 at 100 nM by direct-filter Binding radiometric assay relative to control"}, "[28]": {"target": "Phosphatidylinositol 4,5-bisphosphate 3-kinase catalytic subunit delta isoform (Homo sapiens) (UniProt O00329)", "conditions": "dose 100.0 nM", "description": "Inhibition of human PIK3CD at 100 nM by scintillation counting based direct-filter Binding radiometric assay relative to control"}},
  "data": [
    {"smiles": "COc1cc(N2CCN(C)CC2)ccc1Nc1ncc2c(C)cc(=O)n([C@H]3CC[C@@H](NC(=O)C4CCCCC4)CC3)c2n1", "values": [
      {"measurement": "Activity", "setting": "[1]", "result": "Non-Toxic"},
      {"measurement": "Activity", "setting": "HCT-116 [2]", "result": 2.04, "unit": "%"},
      {"measurement": "Kd", "setting": "[3]", "result": 0.011, "unit": "µM"},
      {"measurement": "inhibition", "setting": "[4]", "result": 91.8, "unit": "%"},
      {"measurement": "inhibition", "setting": "[5]", "result": 92, "unit": "%"},
      {"measurement": "Cmax", "setting": "[6]", "result": 2.53, "unit": "µg/mL"},
      {"measurement": "inhibition", "setting": "[7]", "result": 87, "unit": "%"},
      {"measurement": "viability at 0.3333 µM", "setting": "HCT-116 [8]", "result": 70.7, "unit": "%"},
      {"measurement": "inhibition", "setting": "[9]", "result": 81, "unit": "%"},
      {"measurement": "clearance", "setting": "[10]", "result": 0.946, "unit": "L/h/kg"},
      {"measurement": "Cmax", "setting": "[11]", "result": 1.23, "unit": "µg/mL"},
      {"measurement": "inhibition", "setting": "[12]", "result": 68, "unit": "%"},
      {"measurement": "IC50", "setting": "[13]", "result": 0.023, "unit": "µM"},
      {"measurement": "Activity", "setting": "HCT-116 [14]", "result": 13.81, "unit": "%"},
      {"measurement": "Kd", "setting": "[15]", "result": "> 1", "unit": "µM"},
      {"measurement": "bioavailability", "setting": "[16]", "result": 45.2, "unit": "%"},
      {"measurement": "Activity", "setting": "[17]", "result": "< 15", "unit": "%"},
      {"measurement": "viability at 0.1111 µM", "setting": "HCT-116 [18]", "result": 89.5, "unit": "%"},
      {"measurement": "Kd", "setting": "[19]", "result": 0.013, "unit": "µM"},
      {"measurement": "inhibition", "setting": "[20]", "result": 94.4, "unit": "%"},
      {"measurement": "half-life", "setting": "[21]", "result": 3.58, "unit": "h"},
      {"measurement": "inhibition", "setting": "[22]", "result": 77, "unit": "%"},
      {"measurement": "Activity", "setting": "HCT-116 [23]", "result": 3.44, "unit": "%"},
      {"measurement": "Activity", "setting": "HCT-116 [24]", "result": 5.3, "unit": "%"},
      {"measurement": "inhibition in vivo at 50 mg/kg", "setting": "HCT-116 [25]", "result": 29, "unit": "%"},
      {"measurement": "viability at 1 µM", "setting": "HCT-116 [26]", "result": 56.6, "unit": "%"},
      {"measurement": "inhibition", "setting": "[27]", "result": 80, "unit": "%"},
      {"measurement": "inhibition", "setting": "[28]", "result": 100, "unit": "%"}
    ]}
  ]
}
